Data as given in publication PMC3195939 (Journal of controlled release : official journal of the …, 2011).

Assays:
[1] = tested on: HeLa cells; assay: Uptake of endocytic markers after inhibitor treatment; type: cell-based, human
[2] = tested on: HeLa cells; assay: Actin filament visualization with rhodamine-phalloidin in fixed cells; type: cell-based, human; settings: 2 μM for 30 min at 37°C, rhodamine-phalloidin and DAPI
[3] = tested on: HeLa cells; assay: Cellular uptake by live cell confocal fluorescence microscopy; type: cell-based, human
[4] = tested on: cell membranes; settings: studies in fixed cells; cited from earlier work

CCN(c1nc(N)c(C(=O)NC(=N)N)nc1Cl)C(C)C [EIPA, 5-(N-ethyl-N-isopropyl)amiloride]
Effect on uptake of 10K-Dex ([1]; 50 μM EIPA): significantly inhibited | Effect on uptake of CTX-B ([1]; 50 μM EIPA): significantly inhibit | Effect on uptake of EGF ([1]; 50 μM EIPA, data not shown): no or little effect

C/C1=C/C(=O)O[C@@H]2C[C@@H](CC[C@H](C)/C=C\CC1)O[C@@](O)([C@@H]1CSC(=O)N1)C2 [Lat B, Latrunculin B]
Effect on actin filament network [2]: total disruption of the actin filament network | Effect on uptake of 10K-Dex ([1]; 2 μM Lat B, data not shown): did not significantly inhibit

AF488-MCoTI-I: MCoTI-I site-specifically labeled with AlexaFluor488 through the ε-amino of residue Lys4 in loop 1 (SGSDGGVCPKILQRCRRDSDCPGACICRGNGYCG; not fully specified; AlexaFluor488 on Lys4; UniProt P82408 1-34, looked up)
Surface binding at 4°C ([3]; 25 μM, 4°C, live HeLa cells): no significant surface binding | Internalization at 4°C ([3]; 25 μM, 1 h incubation at 4°C, completely reversible on 1 h at 37°C): totally inhibited | Internalization (intracellular distribution) ([3]; 25 μM, 1 h incubation at 37°C, serum-free DMEM, live HeLa cells, confocal fluorescence): clearly visible within perinuclear punctate spots inside the cells | Inhibition of cellular uptake by EIPA ([3]; 50 μM EIPA for 30 min at 37°C before 25 μM cyclotide, 1 h uptake): ≈ 80%

kalata B1
Affinity for proteins or lipids in cell membranes [4]: shows membrane affinity
